Results: ChEMBL document CHEMBL1201862, “PubChem BioAssay data set” (2004)
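Each compound was tested at five concentrations against cells in 96-well plates for 48 hours. GI50 is the concentration that inhibits growth by half.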 Active and inactive are the calls of the source. No stated cut-off is given here; in the data, active = GI50 up to about 1.1 µM and inactive = higher.

Assays:
Experiment in all cases: DTP human tumour cell line panel, 48 h
HOP-62 = system: HOP-62
DLD-1 = system: DLD-1
NCI/ADR-RES = system: NCI/ADR-RES
SF-268 = system: SF-268
U-251 = system: U-251
SF-539 = system: SF-539
SW-620 = system: SW-620
MDA-MB-231 = system: MDA-MB-231
DU-145 = system: DU-145
OVCAR-8 = system: OVCAR-8
MOLT-4 = system: MOLT-4
NCI-H226 = system: NCI-H226
SNB-78 = system: SNB-78
NCI-H460 = system: NCI-H460
MDA-N = system: MDA-N
DMS-114 = system: DMS-114
SNB-75 = system: SNB-75
T47D = system: T47D
UACC-62 = system: UACC-62
KM12 = system: KM12

SMILES	GI50 (HOP-62)	GI50 (DLD-1)	GI50 (NCI/ADR-RES)	GI50 (SF-268)	GI50 (U-251)	GI50 (SF-539)	GI50 (SW-620)	GI50 (MDA-MB-231)	GI50 (DU-145)	GI50 (OVCAR-8)	GI50 (MOLT-4)	GI50 (NCI-H226)	GI50 (SNB-78)	GI50 (NCI-H460)	GI50 (MDA-N)	GI50 (DMS-114)	GI50 (SNB-75)	GI50 (T47D)	GI50 (UACC-62)	GI50 (KM12)
CC(=O)OC1CC(n2cc(F)c(=O)[nH]c2=O)OC1CO (stereo not given)	152 nM (active)	28800 nM (inactive)	1930 nM (inactive)	80.7 nM (active)	5690 nM (inactive)	41.8 nM (active)	10800 nM (inactive)	> 55200 nM (inactive)	1150 nM (inactive)	668 nM (active)	1080 nM (active)	49100 nM (inactive)	> 100000 nM (inactive)	17.7 nM (active)	24300 nM (inactive)	1360 nM (inactive)	3980 nM (inactive)	12100 nM (inactive)	420 nM (active)	> 93300 nM (inactive)
COc1ccc(C(C)c2cc3c(cc2OC)OCO3)cc1 (stereo not given)	124 nM (active)	225 nM (active)	26.8 nM (active)	614 nM (active)	229 nM (active)	100 nM (active)	82.8 nM (active)	112 nM (active)	231 nM (active)	269 nM (active)	264 nM (active)	416 nM (active)	612 nM (active)	122 nM (active)	19 nM (active)	339 nM (active)	60 nM (active)	2080 nM (inactive)	200 nM (active)	119 nM (active)
COC(=O)c1ccc2c(c1)C(NC(C)=O)CCc1cc(OC)c(OC)c(OC)c1-2 (stereo not given)	15.8 nM (active)	17.3 nM (active)	41.6 nM (active)	13.9 nM (active)	< 11.7 nM (active)	12.4 nM (active)	12.9 nM (active)	< 20 nM (active)	14 nM (active)	15.4 nM (active)	15.1 nM (active)	42.4 nM (active)	< 15.2 nM (active)	25.9 nM (active)	11.3 nM (active)	< 12.6 nM (active)	12.9 nM (active)	> 100000 nM (inactive)	13.1 nM (active)	< 11.5 nM (active)
